US9265736B2, “Treatment of cardiovascular disease and thrombosis” (THE CLEVELAND CLINIC FOUNDATION, priority 2011, dated 2016)
“Also recorded” adds a separate entry of the source.

Experiments:
peritoneal macrophages [1] = assay: Macrophage cholesterol accumulation in mice on supplemented chow (Example 1); assay type: in vivo, C57BL/6J.Apoe−/− mice; conditions: normal chow supplemented with choline (1.0%), TMAO (0.12%) or DMB (1.0%) vs normal chow
Protocol: Male C57BL/6J.Apoe−/− mice (15 week old) were placed on normal chow (control) alone or supplemented in the presence of either choline (1.0%), TMAO (0.12%), or DMB (1.0%). Peritoneal macrophages were recovered from the indicated number of mice at 20 weeks of age and cellular cholesterol content was quantified by stable isotope dilution GC/MS, and normalized to DNA content. (b) Schematic illustration of overall pathway.
(§1) Experiments were conducted during development of embodiments of the present invention to examine the structural specificity of phaophatidylcholine metabolites in promoting a pro-atherogenic macrophage phenotype as monitored by endogenous foam cell formation. C57BL/6J.Apoe−/− mice at time of weaning were placed on either normal chow diet (control) or normal chow supplemented with either choline, TMAO or the choline analog DMB, where the quaternary amine nitrogen of choline is replaced with a carbon (SEE FIG. 2, right). Thus, DMB is structurally identical to choline except there is no C—N bond for potential cleavage and TMA formation by gut flora.

platelets = assay: Ex vivo platelet aggregation triggered by ADP (Example 7); assay type: in vivo, mice
Protocol: In this example, mice were placed on either normal chow diet at time of weaning, or a high choline diet. After several weeks, whole blood was removed, and platelets isolated. The ability of a submaximal agonist of platelets, ADP, to trigger platelet aggregation was then determined. In parallel, plasma levels of TMAO were determined by established stable isotope dilution LC/MS/MS analyses. […] This is a clear signal of a pro-thrombotic phenotype in the mice on a high choline diet. In a similar study, the mice on the high choline were also placed on a cocktail of broad spectrum antibiotics (described above and in Wang et al., Nature 2011, April, 472(7341):57-63, incorporated by reference it its entirety for all purposes) to suppress intestinal microflora, and reduce plasma TMAO levels. […] Such drugs (e.g., DMB or antibiotics) are attractive since they should not induce excess bleeding (e.g., like commercial anti-thrombotic drugs like clopidogrel or Warfarin). That is, TMAO only accentuates platelet function, and reducing TMAO levels (like with DMB, antibiotic, or some other drug or approach, be it functional food, probiotic, or prebiotic) would decrease in vivo thrombosis, but not reduce below “normal” function, and thus not increase bleeding risk. […]

[2] = Plasma TMA and TMAO by stable isotope dilution LC/MS/MS in mice on diets (Example 7); assay type: in vivo
Protocol: Six week old female mice were placed on the indicated diets +/− shown in FIG. 9, including Chow, CHOW+ antibiotics (ABS; which was 0.5 g/L vancomycin, 1 g/L neomycin sulfate, 1 g/L metronidazole, and 1 g/L ampicillin), TMAO, CH (chow supplemented with 1.0% wt/wt choline), CH and ABS, and CH+DMB. Mice were placed on these diets at 6 weeks of age and maintained on the diets for 3 weeks. Plasma was then recovered and both TMA and TMAO were determined by stable isotope dilution LC/MS/MS. Note that a diet rich in choline (similar to a Western diet) leads to increases in plasma TMA and TMAO levels.
In this example, mice were placed on either normal chow diet at time of weaning, or a high choline diet. After several weeks, whole blood was removed, and platelets isolated. The ability of a submaximal agonist of platelets, ADP, to trigger platelet aggregation was then determined. In parallel, plasma levels of TMAO were determined by established stable isotope dilution LC/MS/MS analyses. […] This is a clear signal of a pro-thrombotic phenotype in the mice on a high choline diet. In a similar study, the mice on the high choline were also placed on a cocktail of broad spectrum antibiotics (described above and in Wang et al., Nature 2011, April, 472(7341):57-63, incorporated by reference it its entirety for all purposes) to suppress intestinal microflora, and reduce plasma TMAO levels. […] Such drugs (e.g., DMB or antibiotics) are attractive since they should not induce excess bleeding (e.g., like commercial anti-thrombotic drugs like clopidogrel or Warfarin). That is, TMAO only accentuates platelet function, and reducing TMAO levels (like with DMB, antibiotic, or some other drug or approach, be it functional food, probiotic, or prebiotic) would decrease in vivo thrombosis, but not reduce below “normal” function, and thus not increase bleeding risk.

Peritoneal macrophages [3] = assay: Cholesterol accumulation and foam cell formation, oil red O staining of peritoneal macrophages (Example 4); assay type: in vivo, C57BL/6J.Apoe−/− male mice; conditions: chow with 1.3% choline and 1.3% DMB
Protocol: Experiments were conducted during development of embodiments of the present invention to examine the effect of addition of DMB on cholesterol accumulation and foam cell formation. C57BL/6J.Apoe−/− male mice at the time of weaning (4 weeks) were placed on chow diet supplemented with 1.3% choline, 1.3% DMB, both, or neither. Peritoneal macrophages were collected, fixed in 4% paraformaldehyde and stained with oil red 0/hematoxin. Addition of DMB reversed the high choline diet induced cholesterol accumulation and foam cell formation (SEE FIG. 6).

wild-type mice = assay: Carotid artery in vivo thrombosis rate by vital microscopy, wild-type mice
Protocol: This example repeats the study immediately above, excepts uses wild-type mice. The results are shown FIG. 14.
Carotid artery in vivo thrombosis rates were determined using vital microscopy on the indicated groups of mice shown in FIG. 15. Mice were on the indicated diets +/− ABS or DMB for 3 weeks.

intestinal microflora = assay: Intestinal microflora-catalyzed generation of trimethylamine from choline, cecum homogenate (Example 6); assay type: biochemical; conditions: D9-choline substrate, mouse cecum homogenate
Protocol: Experiments were conducted during development of embodiments of the present invention to examine the effect of DMB on intestinal microflora-catalyzed generation of trimethylamine from choline. Mouse celum was homogenized as a source of intestinal microflora. D9-choline was used as a substrate and the generation of […] was quantificed by stable isotope dilution LC/MS/MS.

[4] = tested on: C57BL/6J.Apoe−/− male mice; assay: Aortic root lesion / atherosclerotic plaque, oil red O staining (Example 2); assay type: in vivo
From the text: C57BL/6J.Apoe−/− male mice at the time of weaning (4 weeks) were placed on chow diet supplemented with 1.3% choline, 1.3% DMB, both, or neither. Aortic root section was stained with oil red 0/hematoxin. The red oil staining area inside the aorta indicates lesion plaque (SEE FIGS. 3 and 4).

[5] = tested on: peritoneal mouse macrophages; assay: Total cholesterol in peritoneal macrophages by stable isotope dilution LC/MS/MS (Example 5); assay type: in vivo, C57BL/6J.Apoe−/− male mice; conditions: chow with 1.3% choline and 1.3% DMB
Protocol: Experiments were conducted during development of embodiments of the present invention to determine the effect of DMB on total cholesterol level in peritoneal mouse macrophages (SEE FIG. 7). C57BL/6J.Apoe−/− male mice at the time of weaning (4 weeks) were placed on chow diet supplemented with 1.3% choline, 1.3% DMB, both, or neither. The total cholesterol of cells was quantified by stable isotope dilution LC/MS/MS. Cells number was quantified by protein content in cell lysates.

[6] = Plasma lipoprotein profile (Example 3); assay type: in vivo, mice; conditions: 1.3% DMB added to mouse diet
Protocol: Experiments were conducted during development of embodiments of the present invention to compare plasma levels of (1) cholesterol, (2) triglyceride, low density lipoprotein-cholesterol, and HDL cholesterol in mice fed chow, or chow supplemented with 1.3% choline, 1.3% DMB, or both (SEE FIG. 5).

[7] = Plasma TMAO in mice on supplemented chow (Example 1); assay type: in vivo, C57BL/6J.Apoe−/− mice; conditions: normal chow supplemented with choline, TMAO or DMB vs normal chow
Protocol: as §1

ApoE−/− mice = assay: Carotid artery in vivo thrombosis rate by vital microscopy, ApoE−/− mice; conditions: diet high in choline or supplemented with TMAO, 3 weeks
Protocol: In this example, carotid artery in vivo thrombosis rates were determined using vital microscopy on the indicated groups of mice in FIG. 13. Mice were on the indicated diets +/− ABS for 3 weeks.
These studies extend to in vivo studies what was seen before with ex vivo platelet aggregation studies from mice on the various indicated diets. […] A shorter time indicates faster platelet aggregation (enhanced in vivo thrombosis).

[8] = female mice, diets for 3 weeks, ABS or DMB added (high choline diet)

SMILES	macrophage cholesterol content (peritoneal macrophages [1])	choline diet induced platelet hyperresponsiveness (aggregation) (platelets; high choline diet plus antibiotics or DMB)	diet induced TMAO levels ([2]; WT thrombosis study, high choline diet plus ABS or DMB, 3 weeks)	plasma TMA formation [2, 8]	plasma TMAO formation [2, 8]	plasma TMAO formation ([2]; platelet study, high choline diet plus antibiotics or DMB)	high choline diet induced cholesterol accumulation and foam cell formation (Peritoneal macrophages [3])	change in in vivo thrombosis rates seen on a high choline diet (wild-type mice; WT mice, high choline diet plus ABS or DMB, 3 weeks)	gut flora-mediated catabolism of choline to TMA (intestinal microflora)	reduction of aortic plaque formation ([4]; 1.3% DMB added to normal chow diet, from weaning (4 weeks)) [%]	increases in atherosclerotic plaque induced by the high choline diet ([4]; chow supplemented with 1.3% choline and 1.3% DMB)	high choline diet induced increase in macrophage cholesterol content [5]	plasma HDL cholesterol [6]	plasma low density lipoprotein-cholesterol [6]	plasma total cholesterol [6]	plasma triglyceride [6]	plasma levels of TMAO [7]	in vivo thrombosis rates (time to cessation of blood flow in the carotid artery) (ApoE−/− mice)	platelet aggregation responses to ADP (platelets; diet supplemented with choline or TMAO vs normal chow)	in vivo thrombosis rates (wild-type mice; wild-type mice, absence of dyslipidemia)
CC(C)(C)CCO [DMB, 3,3-dimethyl-1-butanol]	no increased accumulation	markedly reduces platelet hyperresponsiveness; also recorded: blocks platelet hyper-responsiveness	block TMAO levels	inhibits	inhibits	inhibits TMAO formation	reversed	block the reduction in in vivo thrombosis rates seen on a high choline diet	markedly inhibited	~90	blocks the diet-induced enhanced atherosclerosis	blocked	increase	significant reductions	significant reductions	significant reductions	no TMAO increase			
C[N+](C)(C)[O-] [TMAO, trimethylamine N-oxide, reference compound]	increased																elevated	promotes accelerated in vivo thrombosis rates	promotes enhanced platelet aggregation	enhances in vivo thrombosis rates
